Consider twelve molecules from patent US8901118B2, “Compounds and methods for kinase modulation, and indications therefor” (Plexxikon Inc., priority 2010, dated 2014).

Data set [1] deals with CYP2C9 (Homo sapiens, UniProt P11712). The data set can be described thus: CYP2C9 inhibition (fluorescent substrate MFC). In kind it is in vitro ADME. As to conditions: read-out: Cyp IC50 2C9. The procedure, abridged: (§1)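 10-pt 1:1 dilution series (from 100 mM DMSO stock) in NADPH regen cofactor mix, 5% MeCN; 10 min preincubation at 37 °C. Enzyme reaction 37 °C: 1A2 15 min, 2C9 45 min, 2C19/2D6 30 min. Fluorescence readout; IC50 fit.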
Sequence of CYP2C9 (P11712 whole entry): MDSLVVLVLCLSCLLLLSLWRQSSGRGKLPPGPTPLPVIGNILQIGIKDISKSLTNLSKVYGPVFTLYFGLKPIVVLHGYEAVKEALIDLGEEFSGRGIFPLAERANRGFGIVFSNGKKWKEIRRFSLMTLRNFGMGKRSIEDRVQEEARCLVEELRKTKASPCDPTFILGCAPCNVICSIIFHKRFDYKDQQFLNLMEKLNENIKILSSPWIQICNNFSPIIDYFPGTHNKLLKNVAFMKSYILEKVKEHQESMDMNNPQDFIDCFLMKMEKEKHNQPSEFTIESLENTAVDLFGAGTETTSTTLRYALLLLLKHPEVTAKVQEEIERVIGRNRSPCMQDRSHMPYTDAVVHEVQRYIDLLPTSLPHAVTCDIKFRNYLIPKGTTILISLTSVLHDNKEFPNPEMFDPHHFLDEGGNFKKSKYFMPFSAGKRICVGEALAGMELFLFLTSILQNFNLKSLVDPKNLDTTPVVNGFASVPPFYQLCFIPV

Data set [2] deals with CYP2C19 (Homo sapiens, UniProt P33261). The data set can be described thus: CYP2C19 inhibition (fluorescent substrate CEC). In kind it is in vitro ADME. Particulars: read-out: Cyp IC50 2C19. The procedure, abridged: as §1
Sequence of CYP2C19 (P33261 whole entry): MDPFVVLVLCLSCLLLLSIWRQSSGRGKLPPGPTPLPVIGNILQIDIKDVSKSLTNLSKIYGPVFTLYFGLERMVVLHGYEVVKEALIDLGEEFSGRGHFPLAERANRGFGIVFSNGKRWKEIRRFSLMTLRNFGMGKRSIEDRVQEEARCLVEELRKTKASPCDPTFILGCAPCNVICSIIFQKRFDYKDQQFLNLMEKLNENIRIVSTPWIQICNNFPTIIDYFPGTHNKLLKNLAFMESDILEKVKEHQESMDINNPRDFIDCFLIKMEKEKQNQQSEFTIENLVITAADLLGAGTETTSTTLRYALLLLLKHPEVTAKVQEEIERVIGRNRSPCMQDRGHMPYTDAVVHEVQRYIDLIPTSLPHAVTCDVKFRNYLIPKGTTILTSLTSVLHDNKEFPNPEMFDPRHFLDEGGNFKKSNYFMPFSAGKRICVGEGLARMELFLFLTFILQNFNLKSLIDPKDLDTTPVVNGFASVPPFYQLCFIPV
Data set [3] addresses TrkA kinase (Homo sapiens, UniProt P04629). The data set can be described thus: TrkA kinase biochemical activity assay (AlphaScreen). As to conditions: 100 μM ATP; read-out: Biochemical Inhibition IC50 TrkA. The procedure, abridged: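 IC50 values come from AlphaScreen PY20/streptavidin bead signal versus compound concentration. Kinase reaction: 1 ng/well TrkA, 100 μM ATP, 30 nM biotin-(E4Y)10 substrate, Mn2+-containing Hepes buffer pH 7.5, 5% DMSO, 40 min, room temperature; TrkC assayed by the same approach.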
(In general: Bead proximity is the source of the signal in Alpha formats.)

The target in data set [4] is CYP3A4(BQ) (Homo sapiens, UniProt P08684). The data set can be described thus: CYP3A4(BQ) inhibition. In kind it is in vitro ADME. As to conditions: CYP3A4, substrate BQ; read-out: Cyp IC50 3A4(BQ). The procedure, abridged:
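After 30 min incubation at 37° C, plates were read on a Tecan Safire 2 at 409 ex/460 em, and IC50 values came from signal plotted against compound concentration. Enzyme and substrate were sourced from BD Biosciences. The cofactor mix held 1.3% NADPH Regeneration system Solution A, 1.04% Solution B, 5% acetonitrile and 0.05% DMSO.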

The nature of data set [5]: Relative solubility by turbidity in aqueous buffers (pH 1.5, 4.5, 6.8, 7.4). In kind it is physicochemical. As to conditions: for turbidity threshold (L, M, H) 1.4: pH 1.5 (SGF); for turbidity threshold (L, M, H) 4.5: pH 4.5 (SIF); for turbidity threshold (L, M, H) 6.8: pH 6.8 (SIF); for turbidity threshold (L, M, H) 7.4: pH 7.4 (HEPES). The gist of the method:
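Reported value: concentration at which optical density at 490, 535 and 650 nm passes 0.01, taken as the mean of the three wavelengths. Buffers were 0.5M NaCl pH 1.5, 0.05M NaH2PO4 pH 4.5 or 6.8, and 10 mM HEPES/150 mM NaCl pH 7.4, each receiving serial 1:1 DMSO dilutions of a 25 mM stock.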

SMILES strings stand for the structures. Bounds are passed on as bounds.

Sequence of CYP3A4(BQ) (P08684 whole entry): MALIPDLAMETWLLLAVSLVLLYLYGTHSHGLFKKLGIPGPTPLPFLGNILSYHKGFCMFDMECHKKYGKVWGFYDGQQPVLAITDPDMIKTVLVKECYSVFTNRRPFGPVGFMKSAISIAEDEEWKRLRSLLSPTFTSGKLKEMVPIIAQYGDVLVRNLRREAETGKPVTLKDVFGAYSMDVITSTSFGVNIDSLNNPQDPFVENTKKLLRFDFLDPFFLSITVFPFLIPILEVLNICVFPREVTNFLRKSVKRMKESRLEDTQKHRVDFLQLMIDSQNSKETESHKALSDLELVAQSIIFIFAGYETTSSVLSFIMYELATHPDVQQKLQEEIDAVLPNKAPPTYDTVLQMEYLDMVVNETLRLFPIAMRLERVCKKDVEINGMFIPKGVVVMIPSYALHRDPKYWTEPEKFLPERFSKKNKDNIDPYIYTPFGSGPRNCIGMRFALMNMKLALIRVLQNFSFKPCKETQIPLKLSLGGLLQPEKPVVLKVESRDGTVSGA
Sequence of TrkA kinase (P04629 33-796): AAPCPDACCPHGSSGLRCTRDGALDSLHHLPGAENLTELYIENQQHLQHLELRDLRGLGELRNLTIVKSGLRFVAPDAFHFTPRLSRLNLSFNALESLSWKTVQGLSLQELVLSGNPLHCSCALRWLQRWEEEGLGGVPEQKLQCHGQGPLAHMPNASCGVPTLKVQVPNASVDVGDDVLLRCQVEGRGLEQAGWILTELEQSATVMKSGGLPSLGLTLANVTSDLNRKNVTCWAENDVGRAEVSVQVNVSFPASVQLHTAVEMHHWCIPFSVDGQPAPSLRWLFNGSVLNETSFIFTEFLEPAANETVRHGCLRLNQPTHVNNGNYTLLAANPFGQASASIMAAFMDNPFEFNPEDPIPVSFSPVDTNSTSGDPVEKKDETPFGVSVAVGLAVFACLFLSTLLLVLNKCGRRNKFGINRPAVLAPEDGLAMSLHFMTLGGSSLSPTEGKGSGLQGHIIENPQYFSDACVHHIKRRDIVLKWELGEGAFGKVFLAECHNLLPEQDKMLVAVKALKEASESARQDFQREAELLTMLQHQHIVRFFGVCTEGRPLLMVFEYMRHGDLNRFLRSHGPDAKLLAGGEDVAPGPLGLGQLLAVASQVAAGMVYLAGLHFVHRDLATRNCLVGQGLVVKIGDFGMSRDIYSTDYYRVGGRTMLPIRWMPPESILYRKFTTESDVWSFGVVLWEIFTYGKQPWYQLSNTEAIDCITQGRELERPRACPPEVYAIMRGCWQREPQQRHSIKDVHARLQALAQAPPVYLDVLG

What is called IC50 is the concentration at which inhibition is half-maximal. As for `Cc1cnc2[nH]cc(Cc3ccc(NC4CCCCC4)nc3F)c2c1` [Compound P-3008, cyclohexyl-[6-fluoro-5-(5-methyl-1H-pyrrolo[2,3-b]pyridin-3-ylmethyl)-pyridin-2-yl]-amine], the IC50 was 5 to 10 µM in data set [1] and less than 5 µM in data set [2].
Consider `O=C(c1ccc(Nc2ccc(C3CC3)nc2)nc1F)c1c[nH]c2ncnc(C3CC3)c12` [Compound P-4040, [6-(6-Cyclopropyl-pyridin-3-ylamino)-2-fluoro-pyridin-3-yl]-(4-cyclopropyl-7H-pyrrolo[2,3-d]pyrimidin-5-yl)-methanone], for which the IC50 in data set [3] is less than 0.01 µM.
For the molecule `Fc1nc(Nc2ccc(C3CC3)nc2)ccc1Cc1c[nH]c2ncnc(C3CC3)c12` [Compound P-4041, (6-Cyclopropyl-pyridin-3-yl)-[5-(4-cyclopropyl-7H-pyrrolo[2,3-d]pyrimidin-5-ylmethyl)-6-fluoro-pyridin-2-yl]-amine], the IC50 in data set [4] is 5 to 10 µM; in data set [3], less than 0.01 µM; in data set [1] it was 5 to 10 µM; in data set [2], less than 5 µM.
Regarding `Nc1ncnc2[nH]cc(C(=O)c3ccc(NC4CCC(F)(F)CC4)nc3Cl)c12` [Compound P-4046, (4-amino-7H-pyrrolo[2,3-d]pyrimidin-5-yl)-[2-chloro-6-[(4,4-difluorocyclohexyl)amino]-3-pyridyl]methanone], the IC50 in data set [3] is less than 1 µM.
Consider `CC(C)=CNc1ncnc2[nH]cc(C(=O)c3ccc(NC4CCC(F)(F)CC4)nc3Cl)c12` [Compound P-4047, [2-chloro-6-[(4,4-difluorocyclohexyl)amino]-3-pyridyl]-[4-(2-methylprop-1-enylamino)-7H-pyrrolo[2,3-d]pyrimidin-5-yl]methanone], for which the IC50 in data set [4] was more than 10 µM; in data set [3] it was more than 1 µM; in data set [1] it was more than 10 µM; in data set [2], more than 10 µM.
In the case of `Nc1ncnc2[nH]cc(C(=O)c3ccc(Nc4ccc(C5CC5)nc4)nc3F)c12` [Compound P-4048, (4-amino-7H-pyrrolo[2,3-d]pyrimidin-5-yl)-[6-[(6-cyclopropyl-3-pyridyl)amino]-2-fluoro-3-pyridyl]methanone], the concentration for half-maximal inhibition (IC50) in data set [4] was more than 10 µM. For the same molecule, the IC50 in data set [3] is less than 0.01 µM. For the same molecule, the 50% inhibitory concentration (IC50) in data set [1] is more than 10 µM. In data set [2], the half-maximal inhibitory concentration (IC50) is more than 10 µM. In data set [5], the “turbidity threshold (L, M, H) 1.4” value is on record as “H (high solubility if the threshold concentration is >250 μm)”; the “turbidity threshold (L, M, H) 4.5” value was “M (moderate solubility if the threshold concentration is 31.3 μM to 250 μM)”; the “turbidity threshold (L, M, H) 6.8” value was “M (moderate solubility if the threshold concentration is 31.3 μM to 250 μM)”; the “turbidity threshold (L, M, H) 7.4” value is reported as “M (moderate solubility if the threshold concentration is 31.3 μM to 250 μM)”.
As to `CC(C)(O)CNc1ncnc2[nH]cc(C(=O)c3ccc(Nc4ccc(C5CC5)nc4)nc3F)c12` [Compound P-4049, [6-[(6-cyclopropyl-3-pyridyl)amino]-2-fluoro-3-pyridyl]-[4-[(2-hydroxy-2-methyl-propyl)amino]-7H-pyrrolo[2,3-d]pyrimidin-5-yl]methanone], the IC50 is more than 10 µM in data set [4], less than 0.01 µM in data set [3], 5 to 10 µM in data set [1] and 5 to 10 µM in data set [2]. Further, the “turbidity threshold (L, M, H) 1.4” value in data set [5] is “H (high solubility if the threshold concentration is >250 μm)”. The “turbidity threshold (L, M, H) 4.5” value in data set [5] was “L (low solubility if the threshold concentration is <31.3 μM)”. The “turbidity threshold (L, M, H) 6.8” value in data set [5] is “L (low solubility if the threshold concentration is <31.3 μM)”. In data set [5], the “turbidity threshold (L, M, H) 7.4” value is recorded as “L (low solubility if the threshold concentration is <31.3 μM)”.
In the case of `CCNc1ncnc2[nH]cc(C(=O)c3ccc(NC4CCC(F)(F)CC4)nc3Cl)c12` [Compound P-4050, [2-chloro-6-[(4,4-difluorocyclohexyl)amino]-3-pyridyl]-[4-(ethylamino)-7H-pyrrolo[2,3-d]pyrimidin-5-yl]methanone], in data set [4], the IC50 was more than 10 µM. In addition, the half-inhibitory concentration (IC50) in data set [3] is less than 1 µM. Besides, in data set [1], the IC50 is more than 10 µM. In data set [2], the IC50 is more than 10 µM. In addition, in data set [5], the “turbidity threshold (L, M, H) 1.4” value was “H (high solubility if the threshold concentration is >250 μm)”; the “turbidity threshold (L, M, H) 4.5” value was “L (low solubility if the threshold concentration is <31.3 μM)”; the “turbidity threshold (L, M, H) 6.8” value is “L (low solubility if the threshold concentration is <31.3 μM)”; the “turbidity threshold (L, M, H) 7.4” value is reported as “L (low solubility if the threshold concentration is <31.3 μM)”.
`CCNc1ncnc2[nH]cc(C(=O)c3cnc(NC4CCC(F)(F)CC4)c(F)c3)c12` [Compound P-4051, [6-[(4,4-difluorocyclohexyl)amino]-5-fluoro-3-pyridyl]-[4-(ethylamino)-7H-pyrrolo[2,3-d]pyrimidin-5-yl]methanone]: the IC50 in data set [4] is more than 10 µM. For the same molecule, the IC50 in data set [3] was less than 0.01 µM. In data set [1], the IC50 is more than 10 µM. Moreover, the IC50 in data set [2] was more than 10 µM. In data set [5], the “turbidity threshold (L, M, H) 1.4” value is reported as “H (high solubility if the threshold concentration is >250 μm)”; the “turbidity threshold (L, M, H) 4.5” value was “M (moderate solubility if the threshold concentration is 31.3 μM to 250 μM)”; the “turbidity threshold (L, M, H) 6.8” value is given as “M (moderate solubility if the threshold concentration is 31.3 μM to 250 μM)”; the “turbidity threshold (L, M, H) 7.4” value is “L (low solubility if the threshold concentration is <31.3 μM)”.
As to `O=C(c1cnc(NC2CCC(F)(F)CC2)c(F)c1)c1c[nH]c2ncnc(NCC(F)(F)F)c12` [Compound P-4052, [6-[(4,4-difluorocyclohexyl)amino]-5-fluoro-3-pyridyl]-[4-(2,2,2-trifluoroethylamino)-7H-pyrrolo[2,3-d]pyrimidin-5-yl]methanone], the concentration for half-maximal inhibition (IC50) in data set [4] is more than 10 µM. In data set [3], the IC50 was less than 1 µM. Moreover, the 50% inhibitory concentration (IC50) in data set [1] was more than 10 µM. The concentration for half-maximal inhibition (IC50) in data set [2] is more than 10 µM. Besides, in data set [5], the “turbidity threshold (L, M, H) 1.4” value was “L (low solubility if the threshold concentration is <31.3 μM)”; the “turbidity threshold (L, M, H) 4.5” value is “L (low solubility if the threshold concentration is <31.3 μM)”; the “turbidity threshold (L, M, H) 6.8” value was “L (low solubility if the threshold concentration is <31.3 μM)”; the “turbidity threshold (L, M, H) 7.4” value is recorded as “L (low solubility if the threshold concentration is <31.3 μM)”.
Take `O=C(c1cnc(NC2CCC(F)(F)CC2)c(F)c1)c1c[nH]c2ncnc(NC3CC3)c12` [Compound P-4053, [4-(cyclopropylamino)-7H-pyrrolo[2,3-d]pyrimidin-5-yl]-[6-[(4,4-difluorocyclohexyl)amino]-5-fluoro-3-pyridyl]methanone]: the 50% inhibitory concentration (IC50) is more than 10 µM in data set [4], less than 0.01 µM in data set [3], more than 10 µM in data set [1] and more than 10 µM in data set [2]. The “turbidity threshold (L, M, H) 1.4” value in data set [5] is on record as “H (high solubility if the threshold concentration is >250 μm)”. Further, the “turbidity threshold (L, M, H) 4.5” value in data set [5] is reported as “M (moderate solubility if the threshold concentration is 31.3 μM to 250 μM)”. Also, the “turbidity threshold (L, M, H) 6.8” value in data set [5] is given as “M (moderate solubility if the threshold concentration is 31.3 μM to 250 μM)”. In addition, in data set [5], the “turbidity threshold (L, M, H) 7.4” value is listed as “M (moderate solubility if the threshold concentration is 31.3 μM to 250 μM)”.
As for `CNc1ncnc2[nH]cc(C(=O)c3cnc(NC4CCC(F)(F)CC4)c(F)c3)c12` [Compound P-4054, [6-[(4,4-difluorocyclohexyl)amino]-5-fluoro-3-pyridyl]-[4-(methylamino)-7H-pyrrolo[2,3-d]pyrimidin-5-yl]methanone], the IC50 in data set [4] was more than 10 µM. Further, the IC50 in data set [3] is less than 0.1 µM. Further, in data set [1], the 50% inhibitory concentration (IC50) is more than 10 µM. Also, in data set [2], the IC50 is more than 10 µM. In addition, in data set [5], the “turbidity threshold (L, M, H) 1.4” value is given as “H (high solubility if the threshold concentration is >250 μm)”; the “turbidity threshold (L, M, H) 4.5” value is reported as “M (moderate solubility if the threshold concentration is 31.3 μM to 250 μM)”; the “turbidity threshold (L, M, H) 6.8” value is reported as “M (moderate solubility if the threshold concentration is 31.3 μM to 250 μM)”; the “turbidity threshold (L, M, H) 7.4” value is on record as “M (moderate solubility if the threshold concentration is 31.3 μM to 250 μM)”.
